Source: US10030020B2, “Spirocycle compounds and methods of making and using same” (Abide Therapeutics, Inc., priority 2016, dated 2018)
Each block holds one molecule with its values, some of them ahead of it.

What was measured:
[1] = target: T1, FAAH (Mus musculus (Mouse), UniProt O08914); assay: In vitro competitive activity-based protein profiling (mouse brain membrane fraction or cell lysates), FAAH band; assay type: biochemical; conditions: 1 μM, mouse; read-out: FAAH % Inh 1 μM (mouse)
Method in brief: (§1)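 Mouse proteome samples (brain membrane fraction or cell lysate, 1.0 mg/mL protein) were pretreated with varying inhibitor concentrations and subsequently probed with fluorophosphonate-rhodamine, each step lasting 30 min at 37° C. Labelled proteins were separated by SDS-PAGE, and band fluorescence was imaged and quantified.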

[2] = target: T2, ABHD6 (Mus musculus (Mouse), UniProt Q8R2Y0); assay: Mouse brain proteomes from inhibitor treated mice (oral gavage, sacrificed 4 h after administration, ABPP analysis), ABHD6; assay type: in vivo, mouse (C57Bl/6J); conditions: 5 mg/kg oral gavage
T2 sequence (Q8R2Y0 whole entry): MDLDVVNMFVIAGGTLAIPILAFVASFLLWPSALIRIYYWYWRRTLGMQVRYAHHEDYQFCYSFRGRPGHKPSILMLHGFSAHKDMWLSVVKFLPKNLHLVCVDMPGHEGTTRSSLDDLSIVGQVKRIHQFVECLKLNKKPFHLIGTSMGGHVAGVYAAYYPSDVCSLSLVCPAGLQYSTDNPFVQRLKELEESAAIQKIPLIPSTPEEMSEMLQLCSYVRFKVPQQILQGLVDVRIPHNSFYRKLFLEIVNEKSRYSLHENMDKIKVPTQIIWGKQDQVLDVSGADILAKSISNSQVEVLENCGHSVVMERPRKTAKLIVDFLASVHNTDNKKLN
Method in brief: (§2)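 Percent inhibition in brain tissue measured by ABPP 4 h after a single oral gavage dose (5 mg/kg) to wild-type C57Bl/6J mice; vehicle was, for example, PEG400/Ethanol/PBS at 7/2/1.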

[3] = target: T2, ABHD6; assay: In vitro competitive activity-based protein profiling (mouse brain membrane fraction or cell lysates), ABHD6 band; assay type: biochemical; conditions: 1 μM, mouse; read-out: ABHD6 % Inh 1 μM (mouse)
Method in brief: as §1

[4] = target: MAGL (Homo sapiens (Human), UniProt Q99685); assay: In vitro competitive activity-based protein profiling (human prefrontal cortex or cell membrane fractions; hMAGL expressed in HEK293T cells); assay type: biochemical; conditions: human
Chain of MAGL (Homo sapiens (Human), UniProt Q99685) (Q99685 whole entry): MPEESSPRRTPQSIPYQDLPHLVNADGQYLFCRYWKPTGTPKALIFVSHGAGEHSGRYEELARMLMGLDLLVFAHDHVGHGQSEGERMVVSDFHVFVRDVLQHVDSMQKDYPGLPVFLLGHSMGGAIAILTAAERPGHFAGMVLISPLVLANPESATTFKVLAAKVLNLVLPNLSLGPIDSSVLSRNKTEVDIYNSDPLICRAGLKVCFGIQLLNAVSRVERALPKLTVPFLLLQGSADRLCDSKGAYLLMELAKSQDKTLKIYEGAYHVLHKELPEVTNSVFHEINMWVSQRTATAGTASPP
Method in brief: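 Human prefrontal cortex or cell membrane proteomes (1.0-2.0 mg/mL), or lysates of HEK293T cells expressing hMAGL diluted into mock proteome, preincubated with inhibitor 30 min at 37° C. FP-Rh or JW912 probe then added for 30 min at room temperature. Residual labeling resolved by SDS-PAGE.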

[5] = target: T1, FAAH; assay: Mouse brain proteomes from inhibitor treated mice (oral gavage, sacrificed 4 h after administration, ABPP analysis), FAAH; assay type: in vivo, mouse (C57Bl/6J); conditions: 5 mg/kg oral gavage
Method in brief: as §2

[6] = target: T3, MAGL (Mus musculus (Mouse), UniProt O35678); assay: In vitro competitive activity-based protein profiling (mouse brain membrane fraction or cell lysates), MAGL band; assay type: biochemical; conditions: 1 μM, mouse; read-out: MAGL % Inh 1 μM (mouse)
T3 sequence (O35678 whole entry): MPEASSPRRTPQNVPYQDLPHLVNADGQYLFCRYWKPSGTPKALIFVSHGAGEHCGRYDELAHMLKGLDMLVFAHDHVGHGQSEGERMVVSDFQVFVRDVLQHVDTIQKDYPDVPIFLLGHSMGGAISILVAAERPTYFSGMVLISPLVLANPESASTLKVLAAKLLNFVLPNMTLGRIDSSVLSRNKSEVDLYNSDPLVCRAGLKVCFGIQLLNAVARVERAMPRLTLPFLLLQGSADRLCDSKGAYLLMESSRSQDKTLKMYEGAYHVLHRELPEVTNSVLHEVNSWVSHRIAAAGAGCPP
Protocol: In Vitro Competitive Activity-Based Protein Profiling.
Proteomes (mouse brain membrane fraction or cell lysates) (50 μL, 1.0 mg/mL total protein concentration) were preincubated with varying concentrations of inhibitors at 37° C. After 30 min, FP—Rh (1.0 μL, 50 μM in DMSO) was added and the mixture was incubated for another 30 min at 37° C. Reactions were quenched with SDS loading buffer (50 μL-4×) and run on SDS-PAGE.

[7] = target: T3, MAGL; assay: Mouse brain proteomes from inhibitor treated mice (oral gavage, sacrificed 4 h after administration, ABPP analysis); assay type: in vivo, mouse (C57Bl/6J); conditions: 5 mg/kg oral gavage
Method in brief: as §2

T1 sequence (O08914 whole entry): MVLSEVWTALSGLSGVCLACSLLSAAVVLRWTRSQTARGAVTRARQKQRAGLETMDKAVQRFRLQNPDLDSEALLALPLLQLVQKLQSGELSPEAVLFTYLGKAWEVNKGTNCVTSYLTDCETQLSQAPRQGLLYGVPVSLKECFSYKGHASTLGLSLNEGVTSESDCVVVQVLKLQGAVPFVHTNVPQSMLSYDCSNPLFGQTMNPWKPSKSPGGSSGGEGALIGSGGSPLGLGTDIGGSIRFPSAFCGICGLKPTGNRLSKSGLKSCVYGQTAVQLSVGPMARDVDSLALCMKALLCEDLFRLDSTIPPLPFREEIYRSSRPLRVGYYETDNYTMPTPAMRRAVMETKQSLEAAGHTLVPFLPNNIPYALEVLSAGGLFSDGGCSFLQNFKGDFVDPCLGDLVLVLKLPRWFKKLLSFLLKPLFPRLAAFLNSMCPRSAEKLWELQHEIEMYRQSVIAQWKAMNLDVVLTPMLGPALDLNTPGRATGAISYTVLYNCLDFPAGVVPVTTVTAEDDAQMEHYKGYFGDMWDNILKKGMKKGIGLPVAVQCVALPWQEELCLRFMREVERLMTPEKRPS

- inhibition at 1 µM [1]: < 25%
- ABHD6 % Inh 5 mg/kg (mouse) [2]: # (# is <25%)
- inhibition at 1 µM [3]: 25 to 75%
- IC50 [4]: < 100 nM
- FAAH % Inh 5 mg/kg (mouse) [5]: # (# is <25%)
- inhibition at 1 µM [6]: > 75%
- MAGL % Inh 5 mg/kg (mouse) [7]: ### (### is ≥75%)
SMILES: O=C(O)[C@H]1CCCCN1c1cc(CN2CCCC23CCN(C(=O)OC(C(F)(F)F)C(F)(F)F)CC3)cc(C(F)(F)F)c1 [Example 274]

- inhibition at 1 µM [1]: < 25%
- ABHD6 % Inh 5 mg/kg (mouse) [2]: # (# is <25%)
- inhibition at 1 µM [3]: 25 to 75%
- IC50 [4]: < 100 nM
- FAAH % Inh 5 mg/kg (mouse) [5]: # (# is <25%)
- inhibition at 1 µM [6]: > 75%
- MAGL % Inh 5 mg/kg (mouse) [7]: ### (### is ≥75%)
SMILES: NC(=O)C1CCN(Cc2cc(C(F)(F)F)ccc2CN2CCCC23CCN(C(=O)OC(C(F)(F)F)C(F)(F)F)CC3)CC1 [Example 275]

- inhibition at 1 µM [1]: < 25%
- ABHD6 % Inh 5 mg/kg (mouse) [2]: # (# is <25%)
- inhibition at 1 µM [3]: 25 to 75%
- IC50 [4]: < 100 nM
- FAAH % Inh 5 mg/kg (mouse) [5]: # (# is <25%)
- inhibition at 1 µM [6]: > 75%
- MAGL % Inh 5 mg/kg (mouse) [7]: # (# is <25%)
SMILES: O=C(O)C1CCN(C(=O)c2cc(C(F)(F)F)ccc2CN2CCCC23CCN(C(=O)OC(C(F)(F)F)C(F)(F)F)CC3)CC1 [Example 281]

The remaining lines, values behind:

SMILES: CS(=O)(=O)C1CCN(c2cc(C(F)(F)F)ccc2CN2CCCC23CCN(C(=O)OC(C(F)(F)F)C(F)(F)F)CC3)CC1 [Example 267]
- inhibition at 1 µM [1]: < 25%
- ABHD6 % Inh 5 mg/kg (mouse) [2]: # (# is <25%)
- inhibition at 1 µM [3]: ≥ 75%
- IC50 [4]: < 100 nM
- FAAH % Inh 5 mg/kg (mouse) [5]: # (# is <25%)
- inhibition at 1 µM [6]: > 75%
- MAGL % Inh 5 mg/kg (mouse) [7]: # (# is <25%)

SMILES: CS(=O)(=O)C1CN(c2cc(C(F)(F)F)ccc2CN2CCCC23CCN(C(=O)OC(C(F)(F)F)C(F)(F)F)CC3)C1 [Example 268]
- inhibition at 1 µM [1]: < 25%
- ABHD6 % Inh 5 mg/kg (mouse) [2]: ## (## is equal to or greater than 25% but less than 75%)
- inhibition at 1 µM [3]: 25 to 75%
- IC50 [4]: < 100 nM
- FAAH % Inh 5 mg/kg (mouse) [5]: # (# is <25%)
- inhibition at 1 µM [6]: > 75%
- MAGL % Inh 5 mg/kg (mouse) [7]: ## (## is equal to or greater than 25% but less than 75%)

SMILES: O=C(O)C1CCN(Cc2cc(CN3CCCC34CCN(C(=O)OC(C(F)(F)F)C(F)(F)F)CC4)cc(OC(F)(F)F)c2)CC1 [Example 269]
- inhibition at 1 µM [1]: < 25%
- ABHD6 % Inh 5 mg/kg (mouse) [2]: # (# is <25%)
- inhibition at 1 µM [3]: < 25%
- IC50 [4]: < 100 nM
- FAAH % Inh 5 mg/kg (mouse) [5]: # (# is <25%)
- inhibition at 1 µM [6]: > 75%
- MAGL % Inh 5 mg/kg (mouse) [7]: ## (## is equal to or greater than 25% but less than 75%)

SMILES: O=C(O)C1CCN(Cc2cc(CN3CCCC34CCN(C(=O)OC(C(F)(F)F)C(F)(F)F)CC4)cc(OC(F)(F)F)c2)C1 (centres unmarked) [Example 270]
- inhibition at 1 µM [1]: < 25%
- ABHD6 % Inh 5 mg/kg (mouse) [2]: # (# is <25%)
- inhibition at 1 µM [3]: < 25%
- IC50 [4]: < 100 nM
- FAAH % Inh 5 mg/kg (mouse) [5]: # (# is <25%)
- inhibition at 1 µM [6]: > 75%
- MAGL % Inh 5 mg/kg (mouse) [7]: ## (## is equal to or greater than 25% but less than 75%)

SMILES: O=C(O)C1CCN(Cc2cc(Cl)cc(CN3CCCC34CCN(C(=O)OC(C(F)(F)F)C(F)(F)F)CC4)c2)C1 (centres unmarked) [Example 272]
- inhibition at 1 µM [1]: < 25%
- ABHD6 % Inh 5 mg/kg (mouse) [2]: # (# is <25%)
- inhibition at 1 µM [3]: < 25%
- IC50 [4]: < 100 nM
- FAAH % Inh 5 mg/kg (mouse) [5]: # (# is <25%)
- inhibition at 1 µM [6]: > 75%
- MAGL % Inh 5 mg/kg (mouse) [7]: ### (### is ≥75%)
